Here are results for 16 compounds from publication PMC9234964, “Design, Synthesis, and Biological Evaluation of a Novel Series of 4-Guanidinobenzoate Derivatives as Enteropeptidase Inhibitors with Low Systemic Exposure for the Treatment of Obesity” (Journal of Medicinal Chemistry, 2022).

Counter-ions that a name gives are not always drawn. Like-named read-outs stand apart in the source and are kept apart here.

Data set [1] deals with T1, human enteropeptidase (Homo sapiens, UniProt P98073).
T1 construct: purchased ITSI-Biosciences, LLC #REN-260
T1 sequence (P98073 whole entry): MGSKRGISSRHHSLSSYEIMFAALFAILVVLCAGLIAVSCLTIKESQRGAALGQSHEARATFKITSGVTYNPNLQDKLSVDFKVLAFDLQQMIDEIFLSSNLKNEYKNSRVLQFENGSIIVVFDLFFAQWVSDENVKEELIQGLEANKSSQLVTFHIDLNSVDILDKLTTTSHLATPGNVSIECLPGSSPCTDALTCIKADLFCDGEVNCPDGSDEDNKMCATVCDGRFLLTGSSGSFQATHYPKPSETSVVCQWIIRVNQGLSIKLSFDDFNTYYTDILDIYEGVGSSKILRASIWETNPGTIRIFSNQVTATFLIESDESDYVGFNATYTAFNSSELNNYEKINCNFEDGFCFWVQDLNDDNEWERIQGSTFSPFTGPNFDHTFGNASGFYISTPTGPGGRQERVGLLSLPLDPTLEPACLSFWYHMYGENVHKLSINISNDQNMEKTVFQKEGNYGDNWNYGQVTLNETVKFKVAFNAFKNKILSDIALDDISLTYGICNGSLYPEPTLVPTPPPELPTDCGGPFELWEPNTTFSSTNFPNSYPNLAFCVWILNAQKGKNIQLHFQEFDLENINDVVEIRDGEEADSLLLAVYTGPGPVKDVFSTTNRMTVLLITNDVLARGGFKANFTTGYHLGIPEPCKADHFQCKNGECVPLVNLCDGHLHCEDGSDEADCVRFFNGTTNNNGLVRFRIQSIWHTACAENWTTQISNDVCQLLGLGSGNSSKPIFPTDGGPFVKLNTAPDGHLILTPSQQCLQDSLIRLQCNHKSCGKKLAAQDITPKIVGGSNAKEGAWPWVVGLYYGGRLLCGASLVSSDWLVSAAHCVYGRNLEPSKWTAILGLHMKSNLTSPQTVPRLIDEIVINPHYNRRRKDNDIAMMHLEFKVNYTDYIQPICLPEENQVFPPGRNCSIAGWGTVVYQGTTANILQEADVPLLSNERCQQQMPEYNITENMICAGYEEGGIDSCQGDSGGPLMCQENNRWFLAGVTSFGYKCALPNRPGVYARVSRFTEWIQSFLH
The data set can be described thus: Human enteropeptidase enzyme assay. The format is biochemical. As for the experimental part: Human recombinant enteropeptidase (#REN-260, ITSI-Biosciences, LLC) was diluted with an assay buffer (50 mM tricine (pH 8.0), 0.01(w/v)% Tween 20, 10 mM CaCl2) to prepare a 24 mU/mL enzyme solution. Subsequently, 5FAM–Abu–[…]CPQ2)–Lys–Lys–NH2 (purity: 97.2%, CPC Scientific, Inc.) was diluted with an assay buffer to prepare a 2.1 μM substrate solution. Compounds were dissolved in DMSO and then diluted in the assay buffer. The compound solution (5 μL/well) and the substrate solution (5 μL/well) were added to a 384-well black plate (#784076, Greiner Bio-One) and mixed. Then, the enzyme solution (5 μL/well) was added to the plate and mixed to start the reaction. The fluorescence intensity was measured at an excitation wavelength of 485 nm and a fluorescence wavelength of 535 nm using a fluorescence plate reader EnVision (PerkinElmer Inc.). Also, the same reaction as above was performed except that the test compound was not added (test compound non-supplemented group). In addition, the same reaction as above was performed except that neither the test compound nor the enzyme was added (control group).
Inhibition rate (%) = (1 – (fluorescence intensity of the test compound supplemented group – fluorescence intensity of the control group)/(fluorescence intensity of the test compound non-supplemented group – fluorescence intensity of the control group)) × 100.

In data set [2] the test system is High-Fat-Diet-Fed Mice. Kind of data set: Increase in fecal protein output in high-fat-diet-fed mice. In kind it is in vivo, mouse. The settings on record: 10 mg/kg, oral. As for the experimental part: A high-fat diet (HFD)-fed mouse (D12079B diet, male, 14–21 weeks old) was used for the in vivo assay. For compound screening, mice were orally administered with either the test compound (10 mg/kg) or 0.5% methylcellulose (MC) as a vehicle control. For the assessment of efficacy by systemic exposure of the compound, mice were subcutaneously administered with compound 2a (10 mg/kg) or saline as a vehicle control and compared with those administered oral treatment (60 mg/kg). Doses were selected to achieve equivalent systemic exposure as the area under the curve over 24 h based on pharmacokinetic data of both oral and subcutaneous administration. Whole feces were collected overnight, and the fecal protein output was evaluated as described previously.[33]

The nature of data set [3]: Aqueous stability at pH 1.2/6.8. The settings on record: 24 h; for stability at pH 1.2 (% decomposed): pH 1.2, 37 °C; for stability at pH 6.8 (% decomposed): pH 6.8, 37 °C. The format is physicochemical. Here is the method: Sample solutions in pH 1.2/6.8 media (first/second fluids for the disintegration test in the Japanese Pharmacopoeia 17th edition, including 10% dimethyl sulfoxide if needed, 10 μg/mL) were prepared for the compounds and incubated at 37 °C. The sample solutions were measured initially and at 24 h using HPLC, and peak analysis was conducted. Residual contents (%) of the compounds in pH 1.2/6.8 media at 37 °C after 24 h of incubation of the initial solutions were calculated using the peak areas.

Data set [4] can be described thus: Kinetic aqueous solubility at pH 1.2/6.8. In kind it is physicochemical. As to conditions: aqueous medium, kinetic from dmso stock.
The subject of data set [5] is DIO mice. As to conditions: growth phase; cited from earlier work.
Data set [6] has as its target T1, human enteropeptidase. Kind of data set: Dissociation assay (recovery of active enzyme after rapid dilution). In kind it is biochemical. The settings on record: rapid dilution after 2 h preincubation of compound and enzyme. An excerpt:
Although not all reaction constants for 1c could be identified, the in vitro IC50 value could be used as an indicator of the combination of k1, k–1, and k2. In this case, the IC50 value of a compound is derived from its affinity for enteropeptidase (k1 and k–1) and its reactivity against enteropeptidase (k2). […] As the affinity of a compound for enteropeptidase is expected to largely contribute to the IC50 value based on initial velocities (IC50(initial)) relative to the IC50 value based on the steady state (IC50(app)), we performed chemical modifications based on IC50(initial). […] Because T1/2 can be an indicator of k3, we focused on compounds with low IC50(initial) values and long T1/2 values.
For dissociation assay, compounds were dissolved in DMSO and then diluted in assay buffer (50 mM Tricine pH 8.0, 0.01(w/v)% Tween20, 10 mM CaCl2). 10 μL of compound solution was added in 96-well plate (corning), and then, 10 μL of 100 mU/mL human recombinant enteropeptidase (ITSI-Biosciences) solution was added into the plate and incubated at room temperature for 2 h. […] After incubation, 2 μL of the compound-enzyme mixture was transferred to a 96-well black plate (Corning) and 200 μL of substrate solution (3 μM 5FAM–Abu–[…]CPQ2)–Lys–Lys–NH2 (CPC Scientific)) was added into the well. By rapid dilution, the inhibitor concentration went to 10-fold below the IC50 from 10-fold above the IC50. The fluorescence was measured each 2 min at excitation wavelength 485 nm and emission wavelength 535 nm by EnVision (Perkin Elmer). The progress curves were fitted to following equation to determine the values for koff and dissociation half-life T1/2 according to the following equations. [drawing 4] 1 where t is time and F is fluorescence from initial rate vo to steady state rate vs. [drawing 5] 2

The nature of data set [7]: PAMPA (parallel artificial membrane permeability assay). The format is in vitro ADME. The settings on record: for Papp: PAMPA. In general terms: PAMPA measures passive passage across an artificial lipid membrane.
The mark [8] stands for this setting: 6 min incubation of enzyme, substrate and compound at room temperature, 95% confidence intervals in parentheses, read-out: Human enteropeptidase IC50(initial).
Where [9] appears, read: 120 min incubation of enzyme, substrate and compound at room temperature, 95% confidence intervals in parentheses, read-out: Human enteropeptidase IC50(app).
[10] abbreviates: pH 1.2, simulated gastric fluid, read-out: Kinetic aqueous solubility at pH 1.2.
Where [11] appears, read: pH 6.8, aqueous buffer, read-out: Kinetic aqueous solubility at pH 6.8.
The mark [12] stands for this setting: 6 min, supplement csv, unit inferred, read-out: human enteropeptidase IC50 (6 min).
Setting [13] is: 120 min, supplement csv, unit inferred, read-out: human enteropeptidase IC50 (120 min).

Turning to `N=C(N)Nc1ccc(C(=O)Oc2ccc(CC(=O)N[C@@H](CCC(=O)O)C(=O)O)cc2)cc1` [2c, N-({4-[(4-Carbamimidamidobenzoyl)oxy]phenyl}acetyl)-L-glutamic Acid Hydrochloride], the values for the half-inhibitory concentration (IC50) in data set [1] (setting [8]) and in data set [1] (setting [9]) were 120 nM and 7.9 nM, respectively.
As to `N=C(N)Nc1ccc(C(=O)Oc2ccc3c(c2)OC[C@@H]3CC(=O)N[C@@H](CC(=O)O)C(=O)O)cc1` [(R)-5b, N-({(3R)-6-[(4-Carbamimidamidobenzoyl)oxy]-2,3-dihydro-1-benzofuran-3-yl}acetyl)-L-aspartic Acid], the concentration for half-maximal inhibition (IC50) in data set [1] (setting [8]) worked out at 84 nM; in data set [1] (setting [9]), 7.7 nM. In addition, the “fecal protein output (fold of 2a)” value in data set [2] was 1.26 fold of 2a.
For the compound `N=C(N)Nc1ccc(C(=O)Oc2cccc(C(=O)N[C@@H](CC(=O)O)C(=O)O)c2)cc1.O=C(O)C(F)(F)F` [4b, N-{3-[(4-Carbamimidamidobenzoyl)oxy]benzoyl}-L-aspartic Acid Trifluoroacetic Acid Salt], the IC50 in data set [1] (setting [8]) worked out at 13 nM; in data set [1] (setting [9]), 0.82 nM. For the same compound, the “stability at pH 1.2 (% decomposed)” value in data set [3] is on record as 3.9 % decomposed. Further, in data set [3], the “stability at pH 6.8 (% decomposed)” value is on record as 8.6 % decomposed. Further, the kinetic solubility in data set [4] (setting [10]) is more than 91 µg/mL; in data set [4] (setting [11]), more than 89 µg/mL. In addition, the “fecal protein output (fold of 2a)” value in data set [2] is reported as 0.82 fold of 2a.
Turning to `N=C(N)Nc1ccc(C(=O)Oc2ccc3c(c2)OC(CC(=O)N[C@@H](CC(=O)O)C(=O)O)C3)cc1` (stereo partly drawn) [5a, N-({6-[(4-Carbamimidamidobenzoyl)oxy]-2,3-dihydro-1-benzofuran-2-yl}acetyl)-L-aspartic Acid], the IC50 was found to be 180 nM in data set [1] (setting [8]) and 14 nM in data set [1] (setting [9]).
Consider `Cc1cc(C(=O)Oc2ccc(CC(=O)N[C@@H](CC(=O)O)C(=O)O)cc2)ccc1NC(=N)N` [3a, N-({4-[(4-Carbamimidamido-3-methylbenzoyl)oxy]phenyl}acetyl)-L-aspartic Acid], for which the “fold decrease in IC50(initial) relative to 2a” value in data set [1] (6 min, methyl group at the 3-position) is listed as “more than 30 fold”. For the same compound, the IC50 was more than 3300 nM in data set [1] (setting [8]) and 680 nM in data set [1] (setting [9]).
For `N=C(N)Nc1ccc(C(=O)Oc2cccc(CC(=O)N[C@@H](CC(=O)O)C(=O)O)c2)cc1.O=C(O)C(F)(F)F` [4a, N-({3-[(4-Carbamimidamidobenzoyl)oxy]phenyl}acetyl)-L-aspartic Acid Trifluoroacetic Acid Salt], the figures for the concentration for half-maximal inhibition (IC50) in data set [1] (setting [8]) and in data set [1] (setting [9]) were 32 nM and 1.6 nM, respectively. Also, the “stability at pH 1.2 (% decomposed)” value in data set [3] is reported as 2.8 % decomposed. Besides, the “stability at pH 6.8 (% decomposed)” value in data set [3] is 5.8 % decomposed. Further, the results for the kinetic solubility in data set [4] (setting [10]) and in data set [4] (setting [11]) were more than 86 µg/mL and more than 92 µg/mL, respectively. Moreover, in data set [2], the “fecal protein output (fold of 2a)” value is 0.97 fold of 2a.
Take `CC(=O)N[C@@H](C)C(=O)N[C@@H](Cc1ccccc1)C(=O)N[C@@H](CCCCN)B1O[C@@H]2C[C@@H]3C[C@@H](C3(C)C)[C@]2(C)O1` [OBE-2008]: in data set [5], the “rate of body weight gain” value is “significantly reduced”.
On to `N=C(N)Nc1ccc(C(=O)Oc2ccc(CC(=O)N[C@@H](CC(N)=O)C(=O)O)cc2)cc1` [2b, N^2-({4-[(4-Carbamimidamidobenzoyl)oxy]phenyl}acetyl)-L-asparagine Trifluoroacetic Acid Salt], for which the values for the IC50 in data set [1] (setting [8]) and in data set [1] (setting [9]) were 310 nM and 23 nM, respectively.
Turning to `N=C(N)Nc1ccc(C(=O)Oc2ccc(CC(=O)N[C@@H](CC(=O)O)C(=O)O)cc2)c(F)c1` [3d, N-({4-[(4-Carbamimidamido-2-fluorobenzoyl)oxy]phenyl}acetyl)-L-aspartic Acid], the results for the IC50 in data set [1] (setting [8]) and in data set [1] (setting [9]) were 7.4 nM and 0.81 nM, respectively. Moreover, in data set [6], the “T1/2, half-time of dissociation from human enteropeptidase” value (“T1/2, half-time of dissociation” for short) stood at 6.1 min.
On to `Cc1cc(OC(=O)c2ccc(NC(=N)N)cc2)no1.Cl` [1a], for which the 50% inhibitory concentration (IC50) in data set [1] (setting [12]) amounted to 1500 nM. In addition, the Papp in data set [7] (pH 7.4, read-out: PAMPA at pH 7.4) came out at 0.3 ×10⁻⁶ cm/s; in data set [7] (pH 5.0, read-out: PAMPA at pH 5.0), 0.5 ×10⁻⁶ cm/s.
In the case of `Cc1cc(NC(=N)N)ccc1C(=O)Oc1ccc(CC(=O)N[C@@H](CC(=O)O)C(=O)O)cc1` [3b, N-({4-[(4-Carbamimidamido-2-methylbenzoyl)oxy]phenyl}acetyl)-L-aspartic Acid], the results for the IC50 in data set [1] (setting [8]) and in data set [1] (setting [9]) were 940 nM and 54 nM, respectively. Further, in data set [6], the “T1/2, half-time of dissociation” value is reported as more than 120 min.
As for `N=C(N)Nc1ccc(C(=O)Oc2ccc(CC(=O)N[C@@H](CC(=O)O)C(=O)O)cc2)c(Cl)c1` [3c, N-({4-[(4-Carbamimidamido-2-chlorobenzoyl)oxy]phenyl}acetyl)-L-aspartic Acid], the half-inhibitory concentration (IC50) in data set [1] (setting [8]) is 57 nM; in data set [1] (setting [9]) it was 5.6 nM. Moreover, in data set [6], the “T1/2, half-time of dissociation” value is 14 min.
Regarding `N=C(N)Nc1ccc(C(=O)Oc2ccc(C(=O)N[C@@H](CC(=O)O)C(=O)O)cc2)cc1.O=C(O)C(F)(F)F` [4c, N-{4-[(4-Carbamimidamidobenzoyl)oxy]benzoyl}-L-aspartic Acid Trifluoroacetic Acid Salt], the IC50 in data set [1] (setting [8]) is 65 nM; in data set [1] (setting [9]) it was 3.2 nM. Further, the figures for the kinetic solubility in data set [4] (setting [10]) and in data set [4] (setting [11]) were 69 µg/mL and more than 88 µg/mL, respectively. Further, the “fecal protein output (fold of 2a)” value in data set [2] is 0.88 fold of 2a.
Take `N=C(N)Nc1ccc(C(=O)Oc2cccc(C3=NO[C@@](CC(=O)O)(C(=O)O)C3)c2)cc1` [6c, (5S)-3-{3-[(4-Carbamimidamidobenzoyl)oxy]phenyl}-5-(carboxymethyl)-4,5-dihydro-1,2-oxazole-5-carboxylic Acid]: the IC50 in data set [1] (setting [8]) came to 26 nM; in data set [1] (setting [9]) it was 1.8 nM. Also, the “fecal protein output (fold of 2a)” value in data set [2] was 1.23 fold of 2a.
In the case of `N=C(N)Nc1ccc(C(=O)Oc2ccc(CC(=O)NCC(=O)O)cc2)cc1.O=C(O)C(F)(F)F` [1c, N-({4-[(4-Carbamimidamidobenzoyl)oxy]phenyl}acetyl)glycine Trifluoroacetic Acid Salt], the IC50 in data set [1] (setting [12]) is 540 nM; in data set [1] (setting [13]) it was 30 nM. Also, the “PAMPA at pH 5.0” value in data set [7] (pH 5.0) is recorded as 2 nm/sec. For the same compound, the “PAMPA at pH 7.4” value in data set [7] (pH 7.4) is given as 2 nm/sec.
For the compound `CS(=O)(=O)O.N=C(N)Nc1ccc(C(=O)Oc2ccccc2)cc1` [1b], the IC50 in data set [1] (setting [12]) stood at 5600 nM; in data set [1] (setting [13]), 400 nM. The “PAMPA at pH 5.0” value in data set [7] (pH 5.0) is recorded as less than 2 nm/sec. Further, the “PAMPA at pH 7.4” value in data set [7] (pH 7.4) is less than 2 nm/sec.

The IC50 is the concentration that gives 50% inhibition. Usually kinetic solubility stands for the concentration staying in solution when a stock, usually in DMSO, is diluted into the medium.
